Measured values: ChEMBL document CHEMBL1944581, “Synthesis and characterization of fluorinated homocysteine derivatives as potential molecular probes for ¹⁹F magnetic resonance spectroscopy and imaging” (Bioorg Med Chem Lett, 2011)

Legend:
Format in all cases: ADME
Albumin [1] = biological target: T1, Albumin (Homo sapiens, UniProt P02768); assay: Binding affinity to human serum albumin in human plasma assessed as protein N-homocysteinylation level at 37 degC for 27 hrs by SDS-PAGE-based 19F-NMR spectroscopy
Albumin [2] = biological target: T1, Albumin; assay: Binding affinity to human serum albumin in phosphate buffer assessed as N-homocysteinylation of protein at 6.2 mM at pH 7.43 at 37 degC after 18 hrs by SDS-PAGE-based 19F-NMR spectroscopy; settings: isolated protein, pH 7.43, 18 h, 6200 µM
Albumin [3] = biological target: T1, Albumin; assay: Binding affinity to human serum albumin in phosphate buffer assessed as N-homocysteinylation of protein by MALDI-TOF scpectroscopy; settings: isolated protein

Measured: Activity

T1 sequence (P02768 whole entry): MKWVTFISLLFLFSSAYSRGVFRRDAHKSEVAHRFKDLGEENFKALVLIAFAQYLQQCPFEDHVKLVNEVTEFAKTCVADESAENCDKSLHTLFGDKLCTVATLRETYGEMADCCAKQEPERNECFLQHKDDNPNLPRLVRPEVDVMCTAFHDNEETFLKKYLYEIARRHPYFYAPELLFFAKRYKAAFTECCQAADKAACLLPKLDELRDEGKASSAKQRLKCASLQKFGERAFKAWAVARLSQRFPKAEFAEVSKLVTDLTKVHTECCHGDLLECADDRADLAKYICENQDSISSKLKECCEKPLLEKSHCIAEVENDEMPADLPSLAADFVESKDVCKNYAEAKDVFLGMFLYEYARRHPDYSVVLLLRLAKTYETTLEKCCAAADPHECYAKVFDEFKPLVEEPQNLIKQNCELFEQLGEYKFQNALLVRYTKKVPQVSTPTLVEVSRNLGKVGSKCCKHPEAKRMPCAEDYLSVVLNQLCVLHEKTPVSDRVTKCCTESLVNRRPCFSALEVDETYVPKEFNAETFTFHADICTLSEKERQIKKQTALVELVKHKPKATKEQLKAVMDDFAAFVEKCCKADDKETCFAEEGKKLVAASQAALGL

O=C1SCCC1NC(=O)C(F)(F)F (stereo not drawn)
Active: all assays above
